Data as given in patent US20230131899A1, “INHIBITORS OF MICROBIALLY INDUCED AMYLOID” (Axial Therapeutics, Inc., priority 2020, published 2023).
Like-named read-outs stand apart in the source and are kept apart here.

Legend:
E. coli CsgA = target: T1, E. coli CsgA (Escherichia coli, UniProt P28307); assay: In vitro ThioflavinT assay of CsgA aggregation (CsgA ThT Assay); assay type: biochemical
T1 construct: made in house; host or cells: E. coli NEB 3016 slyD::kan, pET11d
Description: In vitro ThioflavinT assay to determine effects of compounds on CsgA aggregation. To assess the effects of compounds on aggregation of E. coli CsgA, a cell-free assay was performed using purified CsgA and Thioflavin T. In the assay, histidine-tagged CsgA was over-expressed in E. coli NEB 3016 slyD::kan cells harboring a pET11d vector containing a C-terminal 6× His tag. Following growth in rich media, CsgA production is induced at an OD600 of approximately 1.0 by addition of 0.5 mM IPTG (isopropyl beta-D-1-thiogalactopyranoside) followed by incubation at 37° C. for 1-4 hours with shaking at 200-250 rpm. Bacteria were resuspended in 8 M guanidine hydrochloride in 50 mM potassium phosphate buffer, pH 7.3 and lysed by sonication on ice using three 20 second intervals. The resulting lysate was incubated on a platform rocker for 1 hour at room temperature. After centrifugation at 10,000×g for 20 minutes, the supernatant was further sonicated on ice for three 20 second intervals and then incubated with nickel-nitrilotriacetic acid resin (Sigma) at room temperature for 1 hour in a 50 mL conical tube on a platform rocker. The resin was washed and pelleted 5 times with 45 mL 8 M guanidine in 50 mM potassium phosphate buffer pH 7.3. The resin was further washed and pelleted two times with 8 M guanidine hydrochloride in 50 mM potassium phosphate buffer pH 7.3 containing 12.5 mM imidazole. Purified CsgA protein was eluted two times with 5 mL of 6-8 M guanidine hydrochloride in 50 mM potassium phosphate buffer, pH 7.3 containing 250 mM imidazole. The eluted protein was aliquoted with 150 μL per aliquot, snap frozen in liquid nitrogen, and stored at −80 C. In order to obtain monomeric CsgA, the purified CsgA protein was thawed and passed through two pre-chilled desalting columns (Zeba) to remove imidazole and guanidine. The buffer exchanged protein was loaded onto a 30-kDa centrifugal filter unit (Amicon) and spun for 30 minutes at 7500×g to remove dimers and other oligomers. Protein concentration was assessed by the NanoDrop technique (Thermo Scientific), as is familiar to one skilled in the art. The CsgA aggregation assay was conducted in 96-well black non-binding surface or white untreated microplates with 20-40 μM ThioflavinT, 50 mM potassium phosphate buffer pH 7.3, 1% DMSO, CsgA at 2-20 μM, and compounds at 3.125-200 uM. The vehicle control wells contain all components of the assay except test compounds and represent the level of CsgA aggregation in the absence of any inhibitor or accelerator. Plates were incubated at room temperature in a Tecan Nano F200 plate reader with excitation at 438 nm using a 439 nm filter with a bandwidth of 8 nm, and emission at 495 nm with a 490 nm filter with a bandwidth of 10 nm, or in a SpectraMax M5, SpectraMax M2 or SpectraMax® i3X (Molecular Devices, San Jose, Calif.) spectrophotometer with excitation at 438 nm and emission at 495 nm. During the assay, plates were shaken initially for 5 seconds and subsequently for 3 seconds prior to fluorescent readings. Readings were performed every 15 minutes for up to 1005 minutes. The effect of compounds on CsgA aggregation in the assay was determined with data from 0-17 hours. Fluorescence values for each compound with CsgA were first adjusted by subtracting the average fluorescence of the compound in the absence of CsgA or in the presence of CsgA and compound at time 0 or 15 minutes. The data were analyzed in several ways:
1. The adjusted ThT fluorescence values were normalized by dividing them by the average fluorescence in the vehicle control wells containing CsgA. The median normalized fluorescence from 6-6.5 hours or 8-9 hours with the compound was expressed as a percentage of the median fluorescence observed in vehicle controls over the same time period. Percent inhibition of CsgA aggregation by a compound was determined by subtracting the percent average fluorescence with the compound relative to the vehicle controls from 100%. […]

[1] = tested on: CsgA gene expression (csgBAC promoter-GFP reporter) in E. coli UTI89; assay: In vitro live cell fluorescent reporter assay of CsgA transcription (Reporter Assay); assay type: cell-based
Description: In vitro live cell fluorescent reporter assay to determine effects of compounds on CsgA transcription. To assess the impact of compounds on CsgA gene expression, a live cell assay was performed using an engineered strain of E. coli UTI89 with a fluorescent CsgA gene expression reporter driven by the csgBAC promoter. In the reporter strain, a gene encoding Green Fluorescent Protein (GFP) was placed immediately downstream of the full intergenic region between csgDEF and csgBAC, containing the csgBAC promoter and other transcriptional regulatory elements, and inserted in single copy into the E. coli UTI89 chromosome, as described in Cegelski et. al., “Small-molecule inhibitors target Escherichia coli amyloid biogenesis and biofilm formation,” Nat. Chem. Bio., 25 Oct. 2009. With this construct, GFP expression in the reporter strain was under the same regulation as CsgA expression. The reporter strain was struck out on a YESCA agar plate (1 g/L yeast extract, 10 g/L casamino acids, 20 g/L Bacto Agar) and grown at about 27° C. for 2 days, or until single colonies were sufficiently large to pick. A single colony of the reporter strain was used to inoculate 5 mL of YESCA broth (1 g/L yeast extract, 10 g/L casamino acids), which was grown overnight at about 27° C. The inoculum was diluted 1:10 in YESCA broth and the optical density at 600 nm (OD600) was measured on a SpectraMax M2 or M5e (Molecular Devices, San Jose, Calif.) spectrophotometer in cuvettes. The culture was then further diluted to achieve a final OD600 of 0.003, which was confirmed by measurement of the OD600. Compounds were diluted in dimethyl sulfoxide (DMSO) and plated on black clear-bottomed tissue culture-treated 96-well plates with 1.5 μL/well for final test concentrations from 0.14-100 μM. All assay wells, including vehicle controls and positive controls for inhibition, included 1% DMSO final. Vehicle control wells consisted of DMSO and the reporter strain to assess the expression of the reporter strain in the assay in the absence of any compound. […] 148.5 μL culture at OD600 0.003 in YESCA broth was added to all wells for 150 μL final volume. Plates were incubated at 27° C. for 20 hours, then GFP fluorescence signal for each well was read on a Spectramax M2 or M5e plate reader with excitation at 485 nm, emission at 525 nm, and a cutoff at 515 nm. OD600 for each well was also measured on the Spectramax M2 or M5e plate reader. […] Background fluorescence was subtracted from all wells, then fluorescence signal for each well was normalized to the mean of the vehicle control wells. Normalized dose response curves were plotted for each compound, and compound inhibition of CsgA transcription was determined by assessing the curve-fit IC50, bottom, top, span (top-bottom), and Hill slope using GraphPad Prism software version 8.1.1 (GraphPad Software, San Diego, Calif.). An additional metric used to evaluate compounds was the concentration at which the curve reached 50% of the expression level of the vehicle control. This was written as a custom analysis in GraphPad Prism according to the formula X[50], or the X value at which Y=50, ie, the compound concentration at which fluorescence of the reporter strain was calculated to reach 50% of the vehicle control fluorescence. Separately from the fluorescence data, OD600 values were normalized to the mean of the vehicle control wells, and dose response curves were plotted for each compound. OD600 reduction of greater than 10% indicated compounds had some toxicity or negative impact on bacterial growth. […]

[2] = CsgA 10 μM, black plates, compound 25 μM, 1005 minutes, class symbol
[3] = mean AUC as % of DMSO control, CsgA 10 μM, black plates, compound 100 μM, 1005 minutes
[4] = read-out: CsgA ThT Assay (10 μM CsgA) % Control AUC at 1005 minutes, 25 μM, mean AUC as % of DMSO control, CsgA 10 μM, black plates, compound 25 μM, 1005 minutes
[5] = read-out: CsgA ThT Assay (10 μM CsgA) % Control AUC at 1005 minutes, 100 μM (activity range), CsgA 10 μM, black plates, compound 100 μM, 1005 minutes, class symbol
[6] = read-out: CsgA ThT Assay (10 μM CsgA) % Control AUC at 1005 minutes, 100 μM, mean AUC as % of DMSO control, CsgA 10 μM, black plates, compound 100 μM, 1005 minutes
[7] = Escherichia coli, read-out: Reporter Assay Abs IC50 (activity range), median Abs IC50 in the CsgA reporter assay, class symbol
[8] = Escherichia coli, read-out: Reporter Assay Abs IC50 (μM), median Abs IC50 in the CsgA reporter assay, N/A = maximum expression reduction is <50% of control
[9] = read-out: CsgA ThT Assay (10 μM CsgA) % Control AUC at 1005 minutes, 25 μM (activity range), CsgA 10 μM, black plates, compound 25 μM, 1005 minutes, class symbol

T1 sequence (P28307 23-151): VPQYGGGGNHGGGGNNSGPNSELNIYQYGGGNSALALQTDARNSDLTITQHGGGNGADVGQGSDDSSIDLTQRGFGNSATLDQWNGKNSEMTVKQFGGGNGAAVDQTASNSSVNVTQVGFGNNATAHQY

SMILES	CsgA ThT Assay (10 μM CsgA) % Control AUC at 1005 minutes, 25 μM (activity range) (E. coli CsgA; [2])	CsgA ThT Assay (10 μM CsgA) % Control AUC at 1005 minutes, 100 μM (activity range) (E. coli CsgA; CsgA 10 μM, black plates, compound 100 μM, 1005 minutes, class symbol)	CsgA ThT Assay (10 μM CsgA) % Control AUC at 1005 minutes, 25 μM (E. coli CsgA; mean AUC as % of DMSO control, CsgA 10 μM, black plates, compound 25 μM, 1005 minutes) [%]	CsgA ThT Assay (10 μM CsgA) % Control AUC at 1005 minutes, 100 μM (E. coli CsgA; [3]) [%]	IC50 ([1]; read-out: Reporter Assay Abs IC50 (activity range), median Abs IC50 in the CsgA reporter assay, class symbol) [µM]	IC50 ([1]; read-out: Reporter Assay Abs IC50, median Abs IC50 in the CsgA reporter assay, N/A = maximum expression reduction is <50% of control) [µM]	remaining activity at 25 µM (E. coli CsgA; [4]) [%]	remaining activity at 100 µM (E. coli CsgA; [5]) [%]	remaining activity at 100 µM (E. coli CsgA; [6]) [%]	IC50 [1, 7] [µM]	IC50 [1, 8] [µM]	remaining activity at 25 µM (E. coli CsgA; [9]) [%]	remaining activity at 25 µM (E. coli CsgA; read-out: CsgA ThT Assay (2 μM CsgA) % Control Bmax 25 μM, activity range, class symbol, CsgA 2 μM, white plates, compound 25 μM) [%]	remaining activity at 25 µM (E. coli CsgA; read-out: CsgA ThT Assay (2 μM CsgA) % Control Bmax 25 μM, mean Bmax as percentage of DMSO control, CsgA 2 μM, white plates, compound 25 μM) [%]	remaining activity at 100 µM (E. coli CsgA; read-out: CsgA ThT Assay (2 μM CsgA) % Control Bmax 100 μM, activity range, class symbol, CsgA 2 μM, white plates, compound 100 μM) [%]	remaining activity at 100 µM (E. coli CsgA; read-out: CsgA ThT Assay (2 μM CsgA) % Control Bmax 100 μM, mean Bmax as percentage of DMSO control, CsgA 2 μM, white plates, compound 100 μM) [%]	IC50 ([1]; Escherichia coli, read-out: Reporter Assay Abs IC50, activity range, class symbol) [µM]
O=C(O)C1CSc2c(-c3cccc(C(F)(F)F)c3)c(Cc3cccc4ccccc34)cc(=O)n21 (single isomer, unassigned) [Compound 011b, 7-(naphthalen-1-ylmethyl)-5-oxo-8-(3-(trifluoromethyl)phenyl)-2,3-dihydro-5H-thiazolo[3,2-a]pyridine-3-carboxylic acid]	(++) (% control AUC of 31 to 60%)	(++) (% control AUC of 31 to 60%)	54	53	1.3 to 4.5	4.1											
CCCN1CC(C(=O)O)n2c(c(-c3cccc(C(F)(F)F)c3)c(Cc3cccc4ccccc34)cc2=O)S1(=O)=O (single isomer, unassigned) [Compound 016a, 8-(naphthalen-1-ylmethyl)-6-oxo-2-propyl-9-(3-(trifluoromethyl)phenyl)-3,4-dihydro-2H,6H-pyrido[1,2-e][1,2,5]thiadiazine-4-carboxylic acid 1,1-dioxide]	(+++) (% control AUC of 11 to 31%)						21	11 to 31	14	4.6 to 10	8.3						
CCCCN1CC(C(=O)O)n2c(c(-c3cccc(C(F)(F)F)c3)c(Cc3cccc4ccccc34)cc2=O)S1(=O)=O (single isomer, unassigned) [Compound 021a, 2-butyl-8-(naphthalen-1-ylmethyl)-6-oxo-9-(3-(trifluoromethyl)phenyl)-3,4-dihydro-2H,6H-pyrido[1,2-e][1,2,5]thiadiazine-4-carboxylic acid 1,1-dioxide]				73			36	> 60		1.3 to 4.5	3.3	31 to 60					
CCN1CC(C(=O)O)n2c(c(-c3cccc(C(F)(F)F)c3)c(Cc3cccc4ccccc34)cc2=O)S1(=O)=O (racemic) [Compound 015, 2-ethyl-8-(naphthalen-1-ylmethyl)-6-oxo-9-(3-(trifluoromethyl)phenyl)-3,4-dihydro-2H,6H-pyrido[1,2-e][1,2,5]thiadiazine-4-carboxylic acid 1,1-dioxide]							28	11 to 31	27	4.6 to 10	8	11 to 31					
NC(=O)c1c(Cc2cccc3ccccc23)c(-c2cccc(C(F)(F)F)c2)c2n(c1=O)C(C(=O)O)CN2Cc1ccccc1 (stereo not drawn) [Compound 203, 1-benzyl-6-carbamoyl-7-(naphthalen-1-ylmethyl)-5-oxo-8-(3-(trifluoromethyl)phenyl)-1,2,3,5-tetrahydroimidazo[1,2-a]pyridine-3-carboxylic acid]											1.1		> 60	62	> 60	64	< 1.3
